Read-outs that look alike come from different tables or passages of the source.
Columns and labels:
[1] = biological target: T1, KRas^G12D (both nucleotide states) (Homo sapiens, UniProt P01116, G12D); assay: 19F CPMG NMR detection of KRas^G12D by probes (normalized integrals I/I0); format: binding; conditions: probe 100 μM, KRas^G12D 6 μM; for sensitivity of detection compared to 3 and 4: 160 ms CPMG; for nucleotide state detected: GDP vs GNP
T1 construct: HRas 1-166 (His-TEV-N; pProEx; ampicillin resistance) and KRas 1-169; His tag with TEV site (N, cleaved yes); made in house; host or cells: E. coli BL21(DE3)
Excerpt: (§1) We then sought to determine whether these SIIG-binders could serve as probe ligands to detect KRas proteins by ^19F NMR spectroscopy. One-dimensional CPMG experiments [90-(τ-180-τ)n], in which a spin–echo with delay τ is looped n times, attenuate signal intensity as a function of the transverse relaxation rate (R2) and total spin echo time (2·τ·n). Prior studies have shown that reversible binding of proteins to fluorine-containing small molecules induces an increase in the observed ^19F R2 at long values of τ, which maximize the exchange contribution to R2.[24],[25] […] Further modifications to the probe structure were required to improve its binding affinity and the sensitivity of the ^19F CPMG NMR assay.
To improve the sensitivity of this method for oncogenic KRas proteins and to explore the relationship between structure and nucleotide-state specificity, we synthesized a series of derivatives of 3 and 4 with varied structure at the aryl ring expected to be buried deepest within the pocket, and these derivatives were evaluated by CPMG NMR spectroscopy against both nucleotide states of KRas^G12D (6 μM; Figure 2A,B). […] Probe 9 relaxed more slowly in the absence of protein (R2,free = 2.4 Hz) than did compounds containing the C-5 hydroxy group (R2,free = 6.3 Hz for 4, 4.4 Hz for 12, and 5.0 Hz for 17), increasing the sensitivity and dynamic range of integral measurements with this probe (Figure S2). Furthermore, probe 9 was confirmed to be a tighter binder to the SIIG of U–^15N KRas^G12D GDP by HSQC NMR compared to 4 (Figure S3).
Figure 2 SAR of SIIG binders enables more sensitive detection of KRas^G12D. (a) Chemical structures of SIIG binders. (b) Normalized integrals (I/I0) from ^19F CPMG NMR spectra (160 ms) of probes (100 μM) with KRas^G12D (6 μM); values are means ± errors propagated from SD (n = 3). (c) Effect of varying KRas^G12D concentration on I/I0; values are means ± errors propagated from SD (n = 3). (d) Effect of varying probe concentration on I/I0; [P]0 = 6 μM for probes 9 and 12, 3 μM for probe 17; individual points shown (n = 3); data fit to eq 1 (SI).
(§2) Preparation of Ras proteins.
(§3) The plasmids for bacterial expression of HRas 1-166 (His-TEV-N; pProEx; ampicillin resistance) and KRas 1-169 (His-TEV-N; pJ411; kanamycin resistance) have been previously published.1 Mutants were obtained by site-directed mutagenesis (Q5, NEB; or Genscript Biotech). BL21(DE3) competent cells were transformed with 1-2 ng of plasmid.
(§4) Cultures for the preparation of natural abundance isotope proteins were grown at 37 °C (A600 0.4 -0.6) in Terrific Broth (Sigma Aldrich), induced (1 mM IPTG), and allowed to express protein overnight at 18 °C. Cultures for the preparation of U -15N proteins were grown and induced in M9 minimal media supplemented with 1 g/L 15NH4Cl (CIL).
(§5) Cells were collected by centrifugation, lysed by sonication (Tris buffer pH 8.0, supplemented with 1 mM PMSF or 1 tablet per 50 ml EDTA-free cOmplete, Roche), and cleared by centrifugation. His -tagged Ras proteins were isolated with Co TALON resin (Takara Bio), the nucl eotide was exchanged to GDP by dialysis (0.5 mM EDTA), the His tag was cleaved with TEV protease, and the protein was purified by anion exchange (Tris buffer pH 8.0, 50 -500 NaCl gradient, HiTrap Q HP, Cytiva) and gel filtration (HEPES storage buffer pH 7.5 , Superdex 75, GE or Cytiva).
(§6) Nucleotide exchange from GDP to GPPNHP (Jena Biosciences) was performed with samples of protein reserved prior to the final gel filtration purification and according to a published procedure comprising EDTA -mediated exchange, desalting, and cleavage of residual GDP with an alkaline phosphatase (CIP or Quick CIP, NEB) 1-4, and then purified by gel filtration. Proteins were concentrated (10k Amicon Ultra, Millipore) to 0.5-1 mM, concentrations were […]
flash frozen in liquid N2 and stored at -80 °C.
Storage buffer: 20 mM HEPES, 150 mM NaCl, 1 mM MgCl2. Titrated to pH 7.5 with NaOH. Storage buffer for U- […]

[2] = biological target: T2, KRas^G12D GDP and KRas^G12D GNP (Homo sapiens, UniProt P01116, G12D); assay: Dual-probe (9 and 12 in mixture) 19F CPMG NMR monitoring of both nucleotide states; format: binding; conditions: 6 μM each state
T2 construct: HRas 1-166 (His-TEV-N; pProEx; ampicillin resistance) and KRas 1-169; His tag with TEV site (N, cleaved yes); made in house; host or cells: E. coli BL21(DE3)
Excerpt: (1 picture or pasted object on this page, not shown here)

KRas^G12D = biological target: KRas^G12D; design: method as in PMID 34889605; conditions: cited from earlier work
[3] = biological target: T3, U-15N KRas^G12D GDP 1-169 (Homo sapiens, UniProt P01116, G12D); assay: 1H-15N HSQC NMR binding; conditions: six peaks fit to single site binding curve; pH 7.4, 298 K, 10% dmso-d6, 50 µM protein; error is SD of six peaks
T3 construct: HRas 1-166 (His-TEV-N; pProEx; ampicillin resistance) and KRas 1-169; His tag with TEV site (N, cleaved yes); made in house; host or cells: E. coli BL21(DE3)

KRas^G12D GDP [4] = biological target: T4, KRas^G12D GDP (Homo sapiens, UniProt P01116, G12D); assay: 19F CPMG NMR probe binding (I/I0 vs probe concentration), GDP state
T4 construct: HRas 1-166 (His-TEV-N; pProEx; ampicillin resistance) and KRas 1-169; His tag with TEV site (N, cleaved yes); made in house; host or cells: E. coli BL21(DE3)
Excerpt: as §1
(§7) The probe and protein concentrations were varied to determine the dependence on each binding partner. The normalized integrals (I/I0) of the probes decreased exponentially with increasing protein concentrations (Figure 2C, Figure S2C,D). The normalized integrals increased with increasing probe concentrations, and KD values for the probe–protein binding were extracted by fitting the data to eq 1 (Figure 2D, SI).
(§8) All non-linear regressions were performed in Graphpad Prism v9 with data points handled as individual values.
(§9) Constrained constants are noted.
(§10) Integrals (I) from single-point CPMG experiments were calculated by dividing the probe’s absolute integral by the standard’s absolute integral (3-trifluoromethylphenol, 3TFMP) from the same sample. The resulting integral values (I) were averaged (n=3) and then normalized by dividing by the measurement obtained in the absence of protein (I0, n=1 or 3). Errors in I/I 0 and -ln(I/I0) were propagated from the standard devi ations (SD) in I and I 0. In all cases, I and I0 were measured from the same premixed aliquot of probe and 3 -trifluoromethylphenol.
(§11) The KD values of probes were calculated by fitting normalized integrals to equation 1 , where I and I0 are the integrals in the presence and absence of protein, respectively, A is a constant in Hz, t is the total spin-echo time (2·τ·n), and [P]0 and [L]0 are the total concentrations of protein and probe, respectively (constraining [P]0 and t). See the supplementary information for derivation.
(§12) I⁄I = e−A∙t∙[P]0⁄(KD+[L]0) (eq 1) […]
as §2, §3, §4, §5, §6
flash frozen in liquid N2 and stored at -80 °C. […]

[5] = test system: panel of KRas proteins (G12 and Q61 mutations), GDP and GNP states; assay: 19F CPMG NMR detection of a panel of KRas and HRas proteins; format: binding; conditions: probe 100 μM, protein 6 μM, 160 ms CPMG
Description: The closely related protein HRas 1–166 contains only one residue difference within the SIIG binding site (Q95 in HRas vs H95 in KRas). HRas was only weakly detected by this method; however, the results with HRas^Q95H closely matched those obtained with KRas^WT.
Figure 3 ^19F CPMG NMR spectroscopy detects a variety of oncogenic KRas proteins. Normalized integrals (I/I0) from ^19F CPMG NMR spectra (160 ms) of 100 μM 9 (a), 12 (b), or 17 (c) in the presence of 6 μM KRas or HRas proteins; values are means ± errors propagated from the SDs of I and I0 (n = 3).
as §2, §3, §4
Cells were collected by centrifugation, lysed by sonication (Tris buffer pH 8.0, supplemented with 1 mM PMSF or 1 tablet per 50 ml EDTA-free cOmplete, Roche), and cleared by centrifugation. […]
1D 1H (ZGESGP) and 2D 1H-15N fast HSQC (FHSQCCF3GPPH, NS = 8, TDF1 = 256, GARP decoupling) spectra were recorded at 298 K on an 800 MHz Bruker Avance NEO spectrometer equipped with an actively shielded Z-gradient 5 mm TCI cryoprobe (H&F/C/N) using programs from the pulse program library (TopSpin 4.0.8). Spectra were processed and analyzed with Bruker Topspin 4.0 and CCPNMR Analysis v3.5 1H chemical shifts were referenced to 1 mM DSS at 0 ppm; 15N chemical shifts were referenced indirectly with Ξ = 0.101329118. […]

KRas^G12D GNP = biological target: T5, KRas^G12D GNP (Homo sapiens, UniProt P01116, G12D); assay: 19F CPMG NMR probe binding (I/I0 vs probe concentration), GNP state
T5 construct: HRas 1-166 (His-TEV-N; pProEx; ampicillin resistance) and KRas 1-169; His tag with TEV site (N, cleaved yes); made in house; host or cells: E. coli BL21(DE3)
Excerpt: as §1, §7, §8, §9, §10, §11, §12, §2
as §3, with “plasmid. […]” for “plasmid.”

KRas^G12D GDP [6] = biological target: T4, KRas^G12D GDP; format: binding; conditions: tested at 60 μM; probe 9 100 µM, protein 2 µM GDP-bound
Aqueous solubility = format: physicochemical
[7] = 19F CPMG 160 ms, varying probe concentration, [P]0 = 6 μM for 9 and 12, 3 μM for 17, fit to eq 1, read-out: KD
[8] = non-linear regression eq 1, t=0.16 s, read-out: KD (extracted value, Table S1)
[9] = 19F CPMG 160 ms, varying probe concentration, [P]0 = 6 μM for 12, 3 μM for 17, fit to eq 1, read-out: KD

Structure (SMILES)	sensitivity of detection compared to 3 and 4 [1]	nucleotide state detected [1]	Kd (KRas^G12D GDP [4]; [7]) [µM]	Kd (KRas^G12D GDP [4]; [8]) [µM]	detection of oncogenic KRas proteins [5]	also measured
NCCNC(=O)COCCOc1ccc(-n2ncc(C(=O)Nc3cc(O)cc(Cl)c3C3CC3)c2C(F)(F)F)cc1 [compound 14]	increased sensitivity					
C#Cc1c(F)ccc2cc(O)cc(-c3ncc4c(N5CC6CCC(C5)N6)nc(OC[C@@]56CCCN5C[C@H](F)C6)nc4c3F)c12 [MRTX1133]						nucleotide state occupied ([2]; 9 and 12 50 μM each, MRTX849 60 μM, MRTX1133 in excess 15 μM, KD2 30 μM): occupied both nucleotide states; nucleotide state occupied ([2]; substoichiometric quantities (2, 4, and 6 μM)): selectively occupied the GDP-state; Ki (KRas^G12D; GDP state): < 1 pM; binding affinity (KRas^G12D): subpicomolar
NCCNC(=O)COCCOc1ccc(-n2ncc(C(=O)Nc3ccc(O)c(Cl)c3)c2C(F)(F)F)cc1 [compound 9]	increased sensitivity	specifically detected the GDP state	200	204	most sensitively detected the GDP state of KRas^G12D	Kd [3]: 580 ± 280 µM
Cc1c(Cl)cc(O)cc1NC(=O)c1cnn(-c2ccc(OCCOCC(=O)NCCN)cc2)c1C(F)(F)F [compound 12]	increased sensitivity	detected both nucleotide states with similar sensitivity	310	307	detected both nucleotide states of all oncogene products tested	Kd (KRas^G12D GNP; [9]): 780 µM; Kd (KRas^G12D GNP; [8]): 778 µM
C=CC(=O)N1CC2(CC(n3nc(-c4ccc5c(cnn5C)c4)c(-c4c(Cl)c(C)cc5[nH]ncc45)c3C)C2)C1 [JDQ443]						occupancy of the SIIP of KRas^G12D (KRas^G12D GDP [6]): did not occupy
C=CC(=O)Nc1cc(Cl)cc(NC(=O)c2cnn(-c3ccc(OC)cc3)c2C(F)(F)F)c1 [compound 2]						aqueous solubility (Aqueous solubility): very low
NCCNC(=O)COCCOc1ccc(-n2ncc(C(=O)Nc3cc(O)cc4ccccc34)c2C(F)(F)F)cc1 [compound 17]	increased sensitivity	detected both nucleotide states with similar sensitivity	350	352	detected both nucleotide states of all oncogene products tested	Kd (KRas^G12D GNP; [9]): 390 µM; Kd (KRas^G12D GNP; [8]): 393 µM
Cc1c(NC(=O)c2cnn(-c3ccc(OCCOCC(=O)NCCN)cc3)c2C(F)(F)F)ccc(O)c1Cl [compound 15]	increased sensitivity					
